Experimental data from ChEMBL document CHEMBL5030517, “6-Halopyridylmethylidene Penicillin-Based Sulfones Efficiently Inactivate the Natural Resistance of Pseudomonas aeruginosa to β-Lactam Antibiotics” (J Med Chem, 2021).
≈ marks a conversion by molar mass, not a printed value. Each block holds one compound with its values, some of them ahead of it. Calls of active or inactive are those of the source. The rule behind the calls is not given here.

Tests used:
[1] = system: Pseudomonas aeruginosa PAO1; assay: Inhibition of beta-lactamase activity in Pseudomonas aeruginosa PAO1 PAHUAC-14 (ST-966) assessed as MIC for cefpodoxime antibacterial activity at 4 mg/L by broth microdilution method
[2] = system: Pseudomonas aeruginosa PAO1; assay: Inhibition of beta-lactamase activity in Pseudomonas aeruginosa PAO1 assessed as MIC for cefpodoxime antibacterial activity at 16 mg/L by broth microdilution method
[3] = system: Pseudomonas aeruginosa PAO1; assay: Inhibition of beta-lactamase activity in Pseudomonas aeruginosa PAO1 13/09-018 (ST-175) assessed as MIC for cefpodoxime antibacterial activity at 16 mg/L by broth microdilution method
[4] = system: Pseudomonas aeruginosa PAO1; assay: Inhibition of beta-lactamase activity in Pseudomonas aeruginosa PAO1 deltaC+pUCP-(PDC-5) assessed as MIC for cefpodoxime antibacterial activity at 16 mg/L by broth microdilution method
[5] = system: Pseudomonas aeruginosa PAO1; assay: Inhibition of beta-lactamase activity in Pseudomonas aeruginosa PAO1 deltaampD assessed as MIC for cefpodoxime antibacterial activity at 16 mg/L by broth microdilution method
[6] = system: Pseudomonas aeruginosa PAO1; assay: Inhibition beta lactamase PDC-1 in Pseudomonas aeruginosa PAO1 assessed as ratio of kinact/K1 using nitrocefin as substrate measured by 96 well microtitre plate
[7] = system: Pseudomonas aeruginosa PAO1; assay: Inhibition of beta-lactamase activity in Pseudomonas aeruginosa PAO1 PAHUAC-27(ST-22) assessed as MIC for cefpodoxime antibacterial activity at 4 mg/L by broth microdilution method
[8] = system: Pseudomonas aeruginosa PAO1; assay: Inhibition beta lactamase PDC-1 in Pseudomonas aeruginosa PAO1 assessed as inactivation efficiency by measuring acylation rate (k2/K) using nitrocefin as substrate measured by 96 well microtitre plate
[9] = system: Pseudomonas aeruginosa PAO1; assay: Inhibition of beta-lactamase activity in Pseudomonas aeruginosa PAO1 deltaC+pUCP-(PDC-1) assessed as MIC for cefpodoxime antibacterial activity at 4 mg/L by broth microdilution method
[10] = system: Pseudomonas aeruginosa PAO1; assay: Inhibition of beta-lactamase activity in Pseudomonas aeruginosa PAO1 deltaDdeltsDh2deltaDh3 assessed as MIC for cefpodoxime antibacterial activity at 4 mg/L by broth microdilution method
[11] = system: Pseudomonas aeruginosa PAO1; assay: Inhibition of beta-lactamase activity in Pseudomonas aeruginosa PAO1 deltaC assessed as MIC for cefpodoxime antibacterial activity at 4 mg/L by broth microdilution method
[12] = system: Pseudomonas aeruginosa PAO1; assay: Inhibition of beta-lactamase activity in Pseudomonas aeruginosa PAO1 deltaDdeltsDh2deltaDh3 assessed as MIC for cefpodoxime antibacterial activity at 16 mg/L by broth microdilution method
[13] = system: Pseudomonas aeruginosa PAO1; assay: Inhibition of beta-lactamase activity in Pseudomonas aeruginosa PAO1 23/14-053 (ST-309) assessed as MIC for cefpodoxime antibacterial activity at 4 mg/L by broth microdilution method
[14] = system: Pseudomonas aeruginosa PAO1; assay: Inhibition of beta-lactamase activity in Pseudomonas aeruginosa PAO1 deltadacBdeltapbpGdeltadacC assessed as MIC for cefpodoxime antibacterial activity at 16 mg/L by broth microdilution method
[15] = system: Pseudomonas aeruginosa PAO1; assay: Inhibition of beta-lactamase activity in Pseudomonas aeruginosa PAO1 deltadacB assessed as MIC for cefpodoxime antibacterial activity at 4 mg/L by broth microdilution method
[16] = system: Pseudomonas aeruginosa PAO1; assay: Inhibition of beta-lactamase activity in Pseudomonas aeruginosa PAO1 13/09-018 (ST-175) assessed as MIC for cefpodoxime antibacterial activity at 4 mg/L by broth microdilution method
[17] = system: Pseudomonas aeruginosa PAO1; assay: Inhibition of beta lactamase PDC-1 in Pseudomonas aeruginosa PAO1 assessed as reduction in enzyme activity using nitrocefin as chromogenic substrate preincubated for 10 min using 96 well microtiter plate
[18] = system: Pseudomonas aeruginosa PAO1; assay: Inhibition of beta-lactamase activity in Pseudomonas aeruginosa PAO1 deltadacBdeltaampD assessed as MIC for cefpodoxime antibacterial activity at 16 mg/L by broth microdilution method
[19] = system: Pseudomonas aeruginosa PAO1; assay: Inhibition of beta-lactamase activity in Pseudomonas aeruginosa PAO1 deltaampD assessed as MIC for cefpodoxime antibacterial activity at 4 mg/L by broth microdilution method
[20] = Inhibition beta lactamase PDC-1 in Pseudomonas aeruginosa PAO1 assessed as apparent inhibition constant using nitrocefin as substrate measured by 96 well microtitre plate; details: read-out: Ki(app)
[21] = system: Pseudomonas aeruginosa PAO1; assay: Inhibition of beta-lactamase activity in Pseudomonas aeruginosa PAO1 17/14-017 (ST-235) assessed as MIC for cefpodoxime antibacterial activity at 4 mg/L by broth microdilution method
[22] = system: Pseudomonas aeruginosa PAO1; assay: Inhibition of beta-lactamase activity in Pseudomonas aeruginosa PAO1 6/04-224 (ST-175) assessed as MIC for cefpodoxime antibacterial activity at 16 mg/L by broth microdilution method
[23] = system: Pseudomonas aeruginosa PAO1; assay: Inhibition of beta-lactamase activity in Pseudomonas aeruginosa PAO1 17/14-017 (ST-235) assessed as MIC for cefpodoxime antibacterial activity at 16 mg/L by broth microdilution method
[24] = system: Pseudomonas aeruginosa PAO1; assay: Inhibition of beta-lactamase activity in Pseudomonas aeruginosa PAO1 deltadacBdeltadacC assessed as MIC for cefpodoxime antibacterial activity at 16 mg/L by broth microdilution method
[25] = system: Pseudomonas aeruginosa PAO1; assay: Inhibition of beta-lactamase activity in Pseudomonas aeruginosa PAO1 deltaC+pUCP-(PDC-5) assessed as MIC for cefpodoxime antibacterial activity at 4 mg/L by broth microdilution method
[26] = system: Pseudomonas aeruginosa PAO1; assay: Inhibition of beta-lactamase activity in Pseudomonas aeruginosa PAO1 deltadacB assessed as MIC for cefpodoxime antibacterial activity at 16 mg/L by broth microdilution method
[27] = system: Pseudomonas aeruginosa PAO1; assay: Inhibition of beta-lactamase activity in Pseudomonas aeruginosa PAO1 36/14-210 (ST-235) assessed as MIC for cefpodoxime antibacterial activity at 4 mg/L by broth microdilution method
[28] = system: Pseudomonas aeruginosa PAO1; assay: Inhibition beta lactamase PDC-1 in Pseudomonas aeruginosa PAO1 assessed as deacylation off-rate using nitrocefin as substrate at 30 mins measured by 96 well microtitre plate
[29] = system: Pseudomonas aeruginosa PAO1; assay: Inhibition of beta-lactamase activity in Pseudomonas aeruginosa PAO1 23/14-053 (ST-309) assessed as MIC for cefpodoxime antibacterial activity at 16 mg/L by broth microdilution method
[30] = system: Pseudomonas aeruginosa PAO1; assay: Inhibition of beta-lactamase activity in Pseudomonas aeruginosa PAO1 assessed as MIC for cefpodoxime antibacterial activity at 4 mg/L by broth microdilution method
[31] = system: Pseudomonas aeruginosa PAO1; assay: Inhibition of beta-lactamase activity in Pseudomonas aeruginosa PAO1 36/14-210 (ST-235) assessed as MIC for cefpodoxime antibacterial activity at 16 mg/L by broth microdilution method
[32] = system: Pseudomonas aeruginosa PAO1; assay: Inhibition beta lactamase PDC-1 in Pseudomonas aeruginosa PAO1 assessed half life of nitrocefin substrate measured by 96 well microtitre plate assay
[33] = system: Pseudomonas aeruginosa PAO1; assay: Inhibition of beta-lactamase activity in Pseudomonas aeruginosa PAO1 53/22-113 (ST-244) assessed as MIC for cefpodoxime antibacterial activity at 16 mg/L by broth microdilution method
[34] = system: Pseudomonas aeruginosa PAO1; assay: Inhibition of beta-lactamase activity in Pseudomonas aeruginosa PAO1 deltadacBdeltapbpGdeltadacC assessed as MIC for cefpodoxime antibacterial activity at 4 mg/L by broth microdilution method
[35] = system: Pseudomonas aeruginosa PAO1; assay: Inhibition beta lactamase PDC-1 in Pseudomonas aeruginosa PAO1 assessed as maximum rate of inactivation using nitrocefin as substrate measured by 96 well microtitre plate
[36] = system: Pseudomonas aeruginosa PAO1; assay: Inhibition of beta-lactamase activity in Pseudomonas aeruginosa PAO1 53/22-113 (ST-244) assessed as MIC for cefpodoxime antibacterial activity at 4 mg/L by broth microdilution method
[37] = system: Pseudomonas aeruginosa PAO1; assay: Inhibition of beta-lactamase activity in Pseudomonas aeruginosa PAO1 deltadacBdeltaampD assessed as MIC for cefpodoxime antibacterial activity at 4 mg/L by broth microdilution method
[38] = system: Pseudomonas aeruginosa PAO1; assay: Inhibition of beta-lactamase activity in Pseudomonas aeruginosa PAO1 deltaC assessed as MIC for cefpodoxime antibacterial activity at 16 mg/L by broth microdilution method
[39] = system: Pseudomonas aeruginosa PAO1; assay: Inhibition of beta-lactamase activity in Pseudomonas aeruginosa PAO1 PAHUAC-27(ST-22) assessed as MIC for cefpodoxime antibacterial activity at 16 mg/L by broth microdilution method
Pseudomonas aeruginosa = assay: Inhibition of beta lactamase PDC-1 in Pseudomonas aeruginosa PAO1 for 30 min using MALDI TOF-MS analysis
[40] = system: Pseudomonas aeruginosa PAO1; assay: Inhibition of beta-lactamase activity in Pseudomonas aeruginosa PAO1 PAHUAC-14 (ST-966) assessed as MIC for cefpodoxime antibacterial activity at 16 mg/L by broth microdilution method
[41] = system: Pseudomonas aeruginosa PAO1; assay: Inhibition of beta-lactamase activity in Pseudomonas aeruginosa PAO1 6/04-224 (ST-175) assessed as MIC for cefpodoxime antibacterial activity at 4 mg/L by broth microdilution method
[42] = system: Pseudomonas aeruginosa PAO1; assay: Inhibition of beta-lactamase activity in Pseudomonas aeruginosa PAO1 deltaC+pUCP-(PDC-1) assessed as MIC for cefpodoxime antibacterial activity at 16 mg/L by broth microdilution method
[43] = system: Pseudomonas aeruginosa PAO1; assay: Inhibition of beta-lactamase activity in Pseudomonas aeruginosa PAO1 deltadacBdeltadacC assessed as MIC for cefpodoxime antibacterial activity at 4 mg/L by broth microdilution method
[44] = Inhibition beta lactamase PDC-1 in Pseudomonas aeruginosa PAO1 using nitrocefin as substrate measured by 96 well microtitre plate

Compound: C[C@]1(COC(=O)Cc2ccc(O)c(O)c2)[C@H](C(=O)O)N2C(=O)/C(=C/c3ccccn3)[C@H]2S1(=O)=O
MIC [1]: 16 µg/mL (≈ 32.8 µM) | MIC [2]: 1 µg/mL (≈ 2.05 µM) | MIC [3]: 8 µg/mL (≈ 16.4 µM) | MIC [4]: 2 µg/mL (≈ 4.09 µM) | MIC [5]: 1 µg/mL (≈ 2.05 µM) | K [6]: 6.3 10^5/M/s | MIC [7]: 2 µg/mL (≈ 4.09 µM) | k2/K inactivation efficiency [8]: 1.5 M⁻¹ s⁻¹ | MIC [9]: 1 µg/mL (≈ 2.05 µM) | MIC [10]: 4 µg/mL (≈ 8.19 µM) | MIC [11]: 1 µg/mL (≈ 2.05 µM) | MIC [12]: 0.5 µg/mL (≈ 1.02 µM) | MIC [13]: 1 µg/mL (≈ 2.05 µM) | MIC [14]: 0.5 µg/mL (≈ 1.02 µM) | MIC [15]: 1 µg/mL (≈ 2.05 µM) | MIC [16]: 2 µg/mL (≈ 4.09 µM) | inhibition [17]: inactive | MIC [18]: 1 µg/mL (≈ 2.05 µM) | MIC [19]: 2 µg/mL (≈ 4.09 µM) | Ki [20]: 53 nM | MIC [21]: 2 µg/mL (≈ 4.09 µM) | MIC [22]: 8 µg/mL (≈ 16.4 µM) | MIC [23]: 2 µg/mL (≈ 4.09 µM) | MIC [24]: 0.5 µg/mL (≈ 1.02 µM) | MIC [25]: 2 µg/mL (≈ 4.09 µM) | MIC [26]: 0.5 µg/mL (≈ 1.02 µM) | MIC [27]: 16 µg/mL (≈ 32.8 µM) | K [28]: 9 10^-2/min | MIC [29]: 1 µg/mL (≈ 2.05 µM) | MIC [30]: 1 µg/mL (≈ 2.05 µM) | MIC [31]: 8 µg/mL (≈ 16.4 µM) | T1/2 [32]: 82 min | MIC [33]: 4 µg/mL (≈ 8.19 µM) | MIC [34]: 1 µg/mL (≈ 2.05 µM) | Kinact [35]: 0.046 s⁻¹ | MIC [36]: 8 µg/mL (≈ 16.4 µM) | MIC [37]: 8 µg/mL (≈ 16.4 µM) | MIC [38]: 1 µg/mL (≈ 2.05 µM) | MIC [39]: 1 µg/mL (≈ 2.05 µM) | inhibition (Pseudomonas aeruginosa): inactive | MIC [40]: 2 µg/mL (≈ 4.09 µM) | MIC [41]: 8 µg/mL (≈ 16.4 µM) | MIC [42]: 1 µg/mL (≈ 2.05 µM) | MIC [43]: 1 µg/mL (≈ 2.05 µM) | IC50 [44]: 6.1 nM

MIC [1]: 4 µg/mL | MIC [2]: 1 µg/mL | MIC [3]: 8 µg/mL | MIC [4]: 1 µg/mL | MIC [5]: 0.5 µg/mL | MIC [7]: 1 µg/mL | k2/K inactivation efficiency [8]: 1370 M⁻¹ s⁻¹ | MIC [9]: 1 µg/mL | MIC [10]: 2 µg/mL | MIC [11]: 1 µg/mL | MIC [12]: 1 µg/mL | MIC [13]: 1 µg/mL | MIC [14]: 0.5 µg/mL | MIC [15]: 1 µg/mL | MIC [16]: 2 µg/mL | MIC [18]: 1 µg/mL | MIC [19]: 1 µg/mL | Ki [20]: 990 nM | MIC [21]: 4 µg/mL | MIC [22]: 8 µg/mL | MIC [23]: 4 µg/mL | MIC [24]: 0.5 µg/mL | MIC [25]: 2 µg/mL | MIC [26]: 0.5 µg/mL | MIC [27]: 8 µg/mL | K [28]: 2.6 10^-2/min | MIC [29]: 1 µg/mL | MIC [30]: 1 µg/mL | MIC [31]: 4 µg/mL | T1/2 [32]: 28 min | MIC [33]: 4 µg/mL | MIC [34]: 1 µg/mL | MIC [36]: 4 µg/mL | MIC [37]: 4 µg/mL | MIC [38]: 1 µg/mL | MIC [39]: 1 µg/mL | MIC [40]: 2 µg/mL | MIC [41]: 8 µg/mL | MIC [42]: 1 µg/mL | MIC [43]: 1 µg/mL | IC50 [44]: 51 nM
Compound: NC(=O)[C@@H]1CC[C@@H]2CN1C(=O)N2OS(=O)(=O)O [AVIBACTAM SODIUM]
